In patent publication US20150273055A1, “METHODS AND COMPOSITIONS FOR EXPANDING HEMATOPOIETIC STEM AND PROGENITOR CELLS” (UNIVERSITY OF ROCHESTER, priority 2012, published 2015):
Entries after “also recorded” stand apart in the source; their conditions may differ.

Assays:
[1] = system: CD31+ Sca1+ BM endothelial cells; test: Flow cytometry of CD31+ Sca1+ bone marrow endothelial cells; format: in vivo, mice; details: for PTH-mediated expansion of BM endothelial cells: bevacizumab 0.7 mg/kg once per day with PTH thrice per day 10 days, vs PTH alone
Protocol: (§1) All drugs were administered by intraperitoneal injection. Following 10 days of treatment, mice were sacrificed (on the morning of the eleventh day) and samples were harvested. Hindlimb bone marrow samples were used to generate the data for FIG. 8A as well as for the competitive transplantation of whole bone marrow. Hindlimb bone marrow was harvested by crushing the right hindlimb of each mouse individually using a sterile mortar and pestle in 2.5 mL phosphate buffered saline, filtered through a 40 um cell strainer and placed on ice. For flow cytometric analysis, fresh, filtered bone marrow cells were subjected to a red blood cell lysis procedure using ammonium chloride and then prepared for flow cytometry by staining with a panel of fluorescently-conjugated antibodies recognizing markers of hematopoietic stem and progenitor cells. Samples were then run on an LSR-II 12 color flow cytometer and data was analyzed using TreeStar's FlowJo software. Statistics between treatment groups were analyzed by student's T test.
(§2) Methods of administration and analysis of the effects of PTH either alone or in combination are described above. To determine whether bone anabolic, HSPC-expanding regimens of PTH stimulation alter the vascular niche, mice were first treated intensively with PTH and the hindlimb BM vasculature was analyzed. PTH increased BM vascular structures per hindlimb section (femur and tibia) by histomorphometric analysis (FIG. 9A) as well as the area occupied by vasculature measured within the tibial metaphysis (FIG. 9B). To clarify whether intensive PTH treatment was vasodilatory to existing vessels or increasing de novo endothelial structures, BMCs of PTH-treated mice were analyzed phenotypically by flow cytometry (FIG. 9D). Intensive PTH treatment expanded populations of BM endothelial cells defined by this immunophenotyic signature (FIG. 9E). […] This expansion of small BM blood vessels was also observed in close association with both trabecular and cortical bone when CD31 immunostaining was examined in the BM (FIG. 9E). The PTH-induced increase in endothelial structures was accompanied by an increase in perivascular α smooth muscle actin (αSMA+) (FIG. 9F), indicating a concomitant increase in perivascular, HSPC supportive stromal cells.

trabecular bone = test: Micro-CT analysis of trabecular bone; format: in vivo, mice
Protocol: The limbs were scanned on a Viva CT 40 (Scanco Medical, Bruttisellen, Switzerland) using a 55-kVp, 145-uA current and a 300-ms integration time with a resolution of 12.5 μm. Trabecular analysis was conducted on a 1.25-mm region 50 μm above the growth plate in the femur and a 625-μm 50 um below the growth plate in the tibia. Cortical analysis was conducted 4.375 mm above/below the growth plate of the femur/tibia for a distance of 375 μm.
Due to the dramatic induction of osteoblastic VEGF-A observed in the setting of PTH stimulation, the functional relevance of this signal in multiple aspects of BM microenvironmental activation was analyzed.

[2] = system: hematopoietic stem and progenitor cells (HSPCs); test: Flow cytometric analysis of bone marrow HSPCs from treated mice; format: in vivo, C57B1/6 mice; details: for PTH-induced expansion of phenotypic and functional BM HSPCs: αVEGF in combination with PTH
Protocol: as §1, with “test. […]” for “test.”

LSKs = test: Growth and survival of LSKs cultured in cytokine-supplemented media; format: cell-based, mice; details: increasing concentrations of αVEGF
CD105+ mesenchymal cells = test: Flow cytometry of CD105+/Endoglin+ CD45− bone marrow mesenchymal cells; format: in vivo, C57B1/6 mice; details: bevacizumab with PTH(1-34) or vehicle, 10 days
Protocol: When administered to a live animal, pimonidazole-HCl precipitates in cells containing<14 μM oxygen or pO2<10 mm Hg and can be detected immunohistochemically. […] FIG. 7A is a schematic of VEGF-blocking experiment. […] FIG. 7B is a graph showing frequency of CD31+ Sca1+ bone marrow endothelial cells isolated from C57B1/6 mice treated as indicated. FIG. 7C is a graph showing frequency of
CD105+/Endoglin+ CD45− non-hematopoietic bone marrow mesenchymal cells isolated from C57B1/6 mice treated as indicated. *P<0.05, **P<0.01

BM vasculature = test: Histomorphometric analysis of hindlimb bone marrow vasculature after PTH treatment; format: in vivo, mice; details: PTH treatment vs vehicle
Text: Osteoblasts (OBs) and the bone marrow (BM) vasculature constitute hematopoietic stem and progenitor cell (HSPC) niches. OB-activation by Parathyroid Hormone (PTH) expands HSPCs through the BM microenvironment. Activation of osteoblasts through systemic PTH treatment or expression of a constitutively active PTH1 receptor (PTH1R) increases trabecular bone and expands HSPCs in the bone marrow. To test if the vasculature is modulated by PTH, it was first assessed whether PTH expands BM endothelial structures. In a murine model of HSPC-expanding PTH treatment, PTH increased microvessels and vascular area in hindlimb histology (FIG. 3A, 3B and 3E-3H). […] To determine if PTH expands BM vasculature by increasing proangiogenic signals, VEGF-A was analyzed in PTH-stimulated BM. […]
(§3) Methods of administration and analysis of the effects of PTH either alone or in combination are described above. To determine whether bone anabolic, HSPC-expanding regimens of PTH stimulation alter the vascular niche, mice were first treated intensively with PTH and the hindlimb BM vasculature was analyzed. PTH increased BM vascular structures per hindlimb section (femur and tibia) by histomorphometric analysis (FIG. 9A) as well as the area occupied by vasculature measured within the tibial metaphysis (FIG. 9B). […]

[3] = system: vessels larger than 20 um in diameter; test: Vascular micro-CT of vessels larger than 20 um in diameter; format: in vivo, mice; details: vascular uCT, TID PTH
Text: FIGS. 3A-3H are graphs (FIGS. 3A-3G) and pictures (FIG. 3H) showing PTH increases bone marrow microvascularity. FIG. 3A is a graph showing histomorphometric analysis of bone marrow microvascular structures per hindlimb section (femur and tibia). FIG. 3B is a graph showing histomorphometric analysis of bone marrow vascular area, measured within a region of interest in the tibial metaphysis. FIG. 3C is a graph showing frequency of CD31+ Sca1+ bone marrow endothelial cells following TID PTH treatment. FIG. 3D is a graph showing frequency of CD31+ Sca1+ bone marrow endothelial cells isolated from CollcaPTH1R-expressing mice (TG) or wildtype littermates (WT). […]
as §3, with “9B). To clarify whether intensive PTH treatment was vasodilatory to existing vessels or increasing de novo endothelial structures, BMCs of PTH-treated mice were analyzed phenotypically by flow cytometry (FIG. 9D).” for “9B).”

VEGF-A = test: Immunohistochemical staining for VEGF-A in hindlimb BM; format: in vivo; details: PTH-treated mice vs vehicle, endosteal/bone surfaces
Text: Osteoblasts (OBs) and the bone marrow (BM) vasculature constitute hematopoietic stem and progenitor cell (HSPC) niches. OB-activation by Parathyroid Hormone (PTH) expands HSPCs through the BM microenvironment. Activation of osteoblasts through systemic PTH treatment or expression of a constitutively active PTH1 receptor (PTH1R) increases trabecular bone and expands HSPCs in the bone marrow. To test if the vasculature is modulated by PTH, it was first assessed whether PTH expands BM endothelial structures. In a murine model of HSPC-expanding PTH treatment, PTH increased microvessels and vascular area in hindlimb histology (FIG. 3A, 3B and 3E-3H). […] To determine if PTH expands BM vasculature by increasing proangiogenic signals, VEGF-A was analyzed in PTH-stimulated BM. […] To establish whether PTH directly stimulates osteoblastic Vegfa expression, mouse calvarial MC3T3 cells were treated with PTH at various stages of osteoblastic maturation. […] The magnitude of induction increased throughout osteoblastic differentiation. […] Bevacizumab blunted PTH-mediated expansion of phenotypic BM ECs when bevacizumab and PTH treatment was compared to PTH alone.
To determine whether the PTH-dependent increase in BM microvascularity is due to local induction of proangiogenic signals, immunostaining for candidate angiogenic factors already implicated in marrow endothelial signaling was performed.

[4] = system: osteoblastic UMR106 cells; test: In vitro PTH stimulation of osteoblastic UMR106 cells; format: cell-based
Protocol: (§4) To determine if PTH increases osteoblast-derived VEGF-A, in vitro PTH stimulation experiments were performed on two osteoblastic cell lines. […] Osteoblastic differentiation was observed through maturational changes in gene expression of Collagen1, Osteocalcin and Pth1r and the ability to form mineralized bone nodules. […] To test whether PTH could directly induce VEGF-A in primary mouse osteoblastic cells as it could in osteoblastic cell lines, mouse bone marrow stroma was harvested and cultured in osteoblastic maturation media prior to stimulation with PTH at specific points throughout differentiation. Again, osteoblastic differentiation was monitored through analysis of Collagen1, Osteocalcin and Pth1r expression as well as by the formation of mineralizing bone nodules.

[5] = system: mouse calvarial MC3T3 cells; test: In vitro PTH stimulation of MC3T3 cells during osteoblastic differentiation; format: cell-based
Text: Osteoblasts (OBs) and the bone marrow (BM) vasculature constitute hematopoietic stem and progenitor cell (HSPC) niches. OB-activation by Parathyroid Hormone (PTH) expands HSPCs through the BM microenvironment. Activation of osteoblasts through systemic PTH treatment or expression of a constitutively active PTH1 receptor (PTH1R) increases trabecular bone and expands HSPCs in the bone marrow. To test if the vasculature is modulated by PTH, it was first assessed whether PTH expands BM endothelial structures. In a murine model of HSPC-expanding PTH treatment, PTH increased microvessels and vascular area in hindlimb histology (FIG. 3A, 3B and 3E-3H). […] To determine if PTH expands BM vasculature by increasing proangiogenic signals, VEGF-A was analyzed in PTH-stimulated BM. […] To establish whether PTH directly stimulates osteoblastic Vegfa expression, mouse calvarial MC3T3 cells were treated with PTH at various stages of osteoblastic maturation. […] The magnitude of induction increased throughout osteoblastic differentiation. […]
To determine if PTH increases osteoblast-derived VEGF-A, in vitro PTH stimulation experiments were performed on two osteoblastic cell lines. […] Again, osteoblastic differentiation was monitored through analysis of Collagen1, Osteocalcin and Pth1r expression as well as by the formation of mineralizing bone nodules.

[6] = system: primary mouse osteoblastic cells; test: PTH stimulation of primary mouse osteoblastic cells from bone marrow stroma; format: cell-based
Protocol: as §4

osteolineage cells = test: Angiogenic signals (FGF2, Vegfa) in marrow and osteolineage cells of treated mice; format: in vivo
Protocol: FGF2 is another angiogenic signal within the BM. In contrast to the effects of VEGF-A on endothelial permeability and migration, FGF2 enforces vascular stability. To determine whether osteoblastic activation by PTH can remodel the BM vasculature through the action of multiple angiogenic signals or VEGF-A alone, FGF2 changes in the marrow of PTH-stimulated mice were analyzed. Indeed, increased endosteal-associated FGF2 in hindlimb BM of mice treated with TID PTH, with a localization pattern similar to that of VEGF was observed. Moreover, FGF2 expression levels were increased within osteolineage cells isolated from TID PTH mice (FIG. 10E).
Immunoreactive VEGF-A and FGF2 were both very high along endosteal surfaces of the hindlimb BM cavity following PTH as compared to control treatment.

HSPCs = test: Competitive transplantation of whole BM into lethally irradiated recipient mice; format: in vivo, C57B1/6 mice; details: primary recipients of treated donor BM
Protocol: Competitive transplantation of these cells was performed using a 4:1 donor to competitor cell ratio where the competitor was a C57B1/6 wildtype CD45.2-expressing male mouse and the recipient mice (10 mice per experimental group) were also C57B1/6 wildtype CD45.2-expressing male mice (6-8 weeks of age) that had been conditioned with a split dose of 10 Gray total body irradiation. Cell cocktails (containing the 4:1 ratio donor to competitor whole bone marrow cells) were transplanted into recipients by retro-orbital injection. Recipient mice were placed on a diet containing sulfatrim prior to the transplant and for 1 month post transplantation. Peripheral blood samples were collected at 3 weeks post transplant by bleeding from the sub-mandibular venous plexus into EDTA-containing microtainer blood tubes. Blood was then separated in order to isolate an enriched sample of mononuclear cells using PBS and dextran separation. Mononuclear cells were subjected to red blood cell lysis and then prepared for flow cytometry using a panel of antibodies recognizing B, T and myeloid cells as well as CD45.1 and CD45.2. Samples were then run on an LSR-II 12 color flow cytometer and data was analyzed using TreeStar's FlowJo software. Statistics between treatment groups were analyzed by student's T test. […]

[7] = system: BM blood vessels and perivascular stromal cells; test: CD31 and αSMA immunostaining in the BM; format: in vivo, mice; details: PTH
Protocol: as §2

OBs = test: PTH stimulation of OBs in vitro; format: cell-based
[8] = αVEGF during TID PTH, effect on the effects of PTH
[9] = αVEGF, baseline or PTH-enhanced

bevacizumab: anti-VEGF-A monoclonal antibody bevacizumab (referred to as αVEGF); humanized monoclonal antibody
PTH-mediated expansion of BM endothelial cells ([1]; listed as Bevacizumab): blunted
PTH-mediated expansion of BM endothelial cells ([1]; listed as anti-VEGF therapy): blocks
PTH-mediated expansion of BM endothelial cells ([1]; listed as αVEGF): significantly decreased
connectivity density of the trabecular bone (trabecular bone; [8]): augment
number of bony trabeculae (trabecular bone; [8]): augment
bone anabolic action of PTH (trabecular bone; αVEGF in combination with PTH): without blocking
trabecular bone volume (trabecular bone; [9]): did not significantly alter
trabecular spacing (trabecular bone; [9]): did not significantly alter
PTH-mediated expansion of HSCs (Flt3−, CD48−, CD150+ LSKs) ([2]; VEGF inhibition with PTH): did not diminish
HSPCs ([2]; anti-VEGF therapy with or without PTH): expands
PTH-induced expansion of multipotent progenitor/short term repopulating HSPCs (MPP/ST-HSPCs) ([2]; bevacizumab and PTH vs PTH alone): augmented
PTH-induced expansion of phenotypic and functional BM HSPCs [2]: further increased
PTH-induced expansion of phenotypic and functional BM HSPCs ([2]; listed as anti-VEGF-A treatment): augments
Flt3+, CD48−, CD150− LSKs ([2]; αVEGF in the setting of PTH): trend towards an increase
hematopoietic lineage−, Sca1+, c-kit+ cells (LSKs) ([2]; αVEGF in the setting of PTH): trend towards an increase
Flt3+, CD48−, CD150− LSKs ([2]; αVEGF treatment alone): expanded
hematopoietic lineage−, Sca1+, c-kit+ cells (LSKs) ([2]; αVEGF treatment alone): expanded
growth and survival of LSKs (LSKs): not significantly affected
CD105+ mesenchymal cells (CD105+ mesenchymal cells): does not reduce

Parathyroid hormone (1-34) [PTH]
BM microvessels / vascular structures per hindlimb section (femur and tibia) (BM vasculature): increased
vascular area (tibial metaphysis) (BM vasculature): increased
CD31+ Sca1+ BM endothelial cells ([1]; PTH treatment vs vehicle): increased; also recorded: expanded
vessel frequency, density or volume [3]: no increase
VEGF-A protein staining in BM (VEGF-A): increased along bone surfaces; also recorded: strongly increased; also recorded: global increase
VEGF-A protein secretion ([4]; by six hours post PTH-stimulation): increase
Vegfa expression ([4]; two hours post PTH stimulation, n=3, p=0.0055): 8.500±1.320 fold change above baseline
secreted VEGF-A protein [5]: increased; also recorded: robust
Vegfa expression ([5]; throughout osteoblastic differentiation): strongly induced; also recorded: induced
soluble VEGF-A protein secreted into the culture media ([6]; PTH treatment): a significant effect of PTH treatment was not detected
Vegfa mRNA levels ([6]; as early as four hours post PTH treatment of maturing osteoblastic cells): increased
endosteal-associated FGF2 in hindlimb BM (osteolineage cells; TID PTH): increased
FGF2 expression levels within osteolineage cells (osteolineage cells; cells isolated from TID PTH mice): increases
Vegfa expression in osteolineage bone-associated cells (osteolineage cells; cells isolated from mice treated with PTH): increases
trabecular bone (trabecular bone; systemic PTH treatment): increases
HSPCs in the bone marrow ([2]; systemic PTH treatment): expands
multilineage hematopoietic reconstitution (HSPCs): transiently increased
perivascular α smooth muscle actin (αSMA+) [7]: increase
small BM blood vessels (CD31 immunostaining) associated with trabecular and cortical bone [7]: expansion
FGF2 in OBs in vitro (OBs): simultaneously increased
expression of VEGF-A in OBs in vitro (OBs): increased
